Patent US9499550B2 (BRISTOL-MYERS SQUIBB COMPANY, priority 2012, dated 2016)

What was measured:
[1] = test system: HCV genotype 1b (Con1) replicon in HUH-7 cells; assay: HCV replicon luciferase reporter assay, genotype 1b; format: cell-based; conditions: Hepatitis C virus, Huh-7, 72 h, HCV genotype 1b replicon luciferase assay, 3 days incubation, range class, read-out: LE_1b (EC50, range)
In short: (§1)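 Replicon inhibition for both genotypes was measured as Renilla luciferase signal (EnduRen, 7.5 μM final, 2 h) after 3-day, 37° C exposure of replicon-bearing HUH-7 cells in 4% FCS DMEM, 0.5% DMSO. The 1b construct carries S1179I; the 1a H77 construct carries P1496L and S2204I. Twenty-point, 3-fold dilutions were fitted four-parametrically for EC50, and CC50 was taken from multiplexed Cell Titer-Blue.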

[2] = test system: HCV genotype 1a (H77 strain) replicon in HUH-7 cells; assay: HCV replicon luciferase reporter assay, genotype 1a; format: cell-based; conditions: Hepatitis C virus, Huh-7, 72 h, HCV genotype 1a replicon luciferase assay, 3 days incubation, range class, read-out: LE_1a (EC50, range)
In short: as §1

Row | Compound | EC50 [1] | EC50 [2]
1 | COc1cnc(O[C@@H]2C[C@H]3C(=O)N[C@]4(C(=O)NS(=O)(=O)C5(CF)CC5)C[C@H]4/C=C\CC[C@@H](C)C[C@@H](C)[C@H](NC(=O)OC4(C(F)(F)F)CCOC4)C(=O)N3C2)c2ccccc12 (stereo partly drawn) [Compound 1066, 3-(trifluoromethyl)tetrahydrofuran-3-yl((2R,6S,7R,9R,13aS,14aR,16aS,Z)-14a-(((1-(fluoromethyl)cyclopropyl)sulfonyl)carbamoyl)-2-((4-methoxyisoquinolin-1-yl)oxy)-7,9-dimethyl-5,16-dioxo-1,2,3,5,6,7,8,9,10,11,13a,14,14a,15,16,16a-hexadecahydrocyclopropa[e]pyrrolo[1,2-a][1,4]diazacyclopentadecin-6-yl)carbamate] | < 5.46 nM | < 5.46 nM
2 | COc1ccc2c(O[C@@H]3C[C@H]4C(=O)N[C@]5(C(=O)NS(=O)(=O)C6CC6)C[C@H]5/C=C\CC[C@H](C)C[C@@H](C)[C@H](NC(=O)OC(C)(C)C)C(=O)N4C3)nccc2c1 [Compound 1067, tert-butyl ((2R,6S,7R,9S,13aS,14aR,16aS,Z)-14a-((cyclopropylsulfonyl)carbamoyl)-2-((6-methoxyisoquinolin-1-yl)oxy)-7,9-dimethyl-5,16-dioxo-1,2,3,5,6,7,8,9,10,11,13a,14,14a,15,16,16a-hexadecahydrocyclopropa[e]pyrrolo[1,2-a][1,4]diazacyclopentadecin-6-yl)carbamate] | < 5.46 nM | < 5.46 nM
3 | COc1ccc2c(O[C@@H]3C[C@H]4C(=O)N[C@]5(C(=O)NS(=O)(=O)C6CC6)C[C@H]5/C=C\CC[C@@H](C)C[C@@H](C)[C@H](NC(=O)OC(C)(C)C)C(=O)N4C3)nccc2c1 [Compound 1068, tert-butyl ((2R,6S,7R,9R,13aS,14aR,16aS,Z)-14a-((cyclopropylsulfonyl)carbamoyl)-2-((6-methoxyisoquinolin-1-yl)oxy)-7,9-dimethyl-5,16-dioxo-1,2,3,5,6,7,8,9,10,11,13a,14,14a,15,16,16a-hexadecahydrocyclopropa[e]pyrrolo[1,2-a][1,4]diazacyclopentadecin-6-yl)carbamate] | < 5.46 nM | < 5.46 nM
4 | CCCOc1cc2c(Cl)cccc2c(O[C@@H]2C[C@H]3C(=O)N[C@]4(C(=O)NS(=O)(=O)C5CC5)C[C@H]4/C=C\CC[C@H](C)C[C@@H](C)[C@H](NC(=O)OC(C)(C)C)C(=O)N3C2)n1 [Compound 1069, tert-butyl ((2R,6S,7R,9S,13aS,14aR,16aS,Z)-2-((5-chloro-3-propoxyisoquinolin-1-yl)oxy)-14a-((cyclopropylsulfonyl)carbamoyl)-7,9-dimethyl-5,16-dioxo-1,2,3,5,6,7,8,9,10,11,13a,14,14a,15,16,16a-hexadecahydrocyclopropa[e]pyrrolo[1,2-a][1,4]diazacyclopentadecin-6-yl)carbamate] | < 5.46 nM | < 5.46 nM
5 | CCCOc1cc2c(Cl)cccc2c(O[C@@H]2C[C@H]3C(=O)N[C@]4(C(=O)NS(=O)(=O)C5CC5)C[C@H]4/C=C\CC[C@@H](C)C[C@@H](C)[C@H](NC(=O)OC(C)(C)C)C(=O)N3C2)n1 [Compound 1070, tert-butyl ((2R,6S,7R,9R,13aS,14aR,16aS,Z)-2-((5-chloro-3-propoxyisoquinolin-1-yl)oxy)-14a-((cyclopropylsulfonyl)carbamoyl)-7,9-dimethyl-5,16-dioxo-1,2,3,5,6,7,8,9,10,11,13a,14,14a,15,16,16a-hexadecahydrocyclopropa[e]pyrrolo[1,2-a][1,4]diazacyclopentadecin-6-yl)carbamate] | < 5.46 nM | < 5.46 nM
6 | CCCOc1cc2c(Cl)cccc2c(O[C@@H]2C[C@H]3C(=O)N[C@]4(C(=O)NS(=O)(=O)C5(C)CC5)C[C@H]4/C=C\CC[C@H](C)C[C@@H](C)[C@H](NC(=O)OC(C)(C)C)C(=O)N3C2)n1 [Compound 1071, tert-butyl ((2R,6S,7R,9S,13aS,14aR,16aS,Z)-2-((5-chloro-3-propoxyisoquinolin-1-yl)oxy)-7,9-dimethyl-14a-(((1-methylcyclopropyl)sulfonyl)carbamoyl)-5,16-dioxo-1,2,3,5,6,7,8,9,10,11,13a,14,14a,15,16,16a-hexadecahydrocyclopropa[e]pyrrolo[1,2-a][1,4]diazacyclopentadecin-6-yl)carbamate] | < 5.46 nM | < 5.46 nM
7 | CCCOc1cc2c(Cl)cccc2c(O[C@@H]2C[C@H]3C(=O)N[C@]4(C(=O)NS(=O)(=O)C5(C)CC5)C[C@H]4/C=C\CC[C@@H](C)C[C@@H](C)[C@H](NC(=O)OC(C)(C)C)C(=O)N3C2)n1 [Compound 1072, tert-butyl ((2R,6S,7R,9R,13aS,14aR,16aS,Z)-2-((5-chloro-3-propoxyisoquinolin-1-yl)oxy)-7,9-dimethyl-14a-(((1-methylcyclopropyl)sulfonyl)carbamoyl)-5,16-dioxo-1,2,3,5,6,7,8,9,10,11,13a,14,14a,15,16,16a-hexadecahydrocyclopropa[e]pyrrolo[1,2-a][1,4]diazacyclopentadecin-6-yl)carbamate] | < 5.46 nM | < 5.46 nM
8 | C[C@H]1CC/C=C\[C@@H]2C[C@@]2(C(=O)NS(=O)(=O)C2(C)CC2)NC(=O)[C@@H]2C[C@@H](Oc3nc(OCC(F)F)cc4c(Cl)cccc34)CN2C(=O)[C@@H](NC(=O)OC(C)(C)C)[C@H](C)C1 [Compound 1073, tert-butyl ((2R,6S,7R,9S,13aS,14aR,16aS,Z)-2-((5-chloro-3-(2,2-difluoroethoxyl)isoquinolin-1-yl)oxy)-7,9-dimethyl-14a-(((1-methylcyclopropyl)sulfonyl)carbamoyl)-5,16-dioxo-1,2,3,5,6,7,8,9,10,11,13a,14,14a,15,16,16a-hexadecahydrocyclopropa[e]pyrrolo[1,2-a][1,4]diazacyclopentadecin-6-yl)carbamate] | < 5.46 nM | < 5.46 nM
9 | C[C@@H]1CC/C=C\[C@@H]2C[C@@]2(C(=O)NS(=O)(=O)C2(C)CC2)NC(=O)[C@@H]2C[C@@H](Oc3nc(OCC(F)F)cc4c(Cl)cccc34)CN2C(=O)[C@@H](NC(=O)OC(C)(C)C)[C@H](C)C1 [Compound 1074, tert-butyl ((2R,6S,7R,9R,13aS,14aR,16aS,Z)-2-((5-chloro-3-(2,2-difluoroethoxyl)isoquinolin-1-yl)oxy)-7,9-dimethyl-14a-(((1-methylcyclopropyl)sulfonyl)carbamoyl)-5,16-dioxo-1,2,3,5,6,7,8,9,10,11,13a,14,14a,15,16,16a-hexadecahydrocyclopropa[e]pyrrolo[1,2-a][1,4]diazacyclopentadecin-6-yl)carbamate] | < 5.46 nM | < 5.46 nM
10 | C[C@H]1CC/C=C\[C@@H]2C[C@@]2(C(=O)NS(=O)(=O)C2CC2)NC(=O)[C@@H]2C[C@@H](Oc3nc(OCC(F)F)cc4c(Cl)cccc34)CN2C(=O)[C@@H](NC(=O)OC(C)(C)C)[C@H](C)C1 [Compound 1075, tert-butyl ((2R,6S,7R,9S,13aS,14aR,16aS,Z)-2-((5-chloro-3-(2,2-difluoroethoxy)isoquinolin-1-yl)oxy)-14a-((cyclopropylsulfonyl)carbamoyl)-7,9-dimethyl-5,16-dioxo-1,2,3,5,6,7,8,9,10,11,13a,14,14a,15,16,16a-hexadecahydrocyclopropa[e]pyrrolo[1,2-a][1,4]diazacyclopentadecin-6-yl)carbamate] | < 5.46 nM | < 5.46 nM
